Consider 27 compounds from patent US20240109917A1 (ACTELION PHARMACEUTICALS LTD, priority 2020, published 2024).

One may read the IC50 as the midpoint of a concentration-inhibition curve.

The target of the first experiment is PDGFRβ (Rattus norvegicus (Rat), UniProt Q05030). Put plainly: PDGFRβ Cellular Assay (PDGFRb P-Y751 HTRF in A10 cells stimulated with PDGF-BB). Format: cell-based. To be noted: PDGFR Cellular IC50. In outline: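 Rat A10 cells, plated overnight, were treated with compound for 3 hours, then stimulated with PDGF-BB (working stock 100 ng/mL in 10% FBS medium). After lysis, PDGFRβ P-Y751 was detected by HTRF.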
PDGFRβ, sequence (Q05030 32-1097): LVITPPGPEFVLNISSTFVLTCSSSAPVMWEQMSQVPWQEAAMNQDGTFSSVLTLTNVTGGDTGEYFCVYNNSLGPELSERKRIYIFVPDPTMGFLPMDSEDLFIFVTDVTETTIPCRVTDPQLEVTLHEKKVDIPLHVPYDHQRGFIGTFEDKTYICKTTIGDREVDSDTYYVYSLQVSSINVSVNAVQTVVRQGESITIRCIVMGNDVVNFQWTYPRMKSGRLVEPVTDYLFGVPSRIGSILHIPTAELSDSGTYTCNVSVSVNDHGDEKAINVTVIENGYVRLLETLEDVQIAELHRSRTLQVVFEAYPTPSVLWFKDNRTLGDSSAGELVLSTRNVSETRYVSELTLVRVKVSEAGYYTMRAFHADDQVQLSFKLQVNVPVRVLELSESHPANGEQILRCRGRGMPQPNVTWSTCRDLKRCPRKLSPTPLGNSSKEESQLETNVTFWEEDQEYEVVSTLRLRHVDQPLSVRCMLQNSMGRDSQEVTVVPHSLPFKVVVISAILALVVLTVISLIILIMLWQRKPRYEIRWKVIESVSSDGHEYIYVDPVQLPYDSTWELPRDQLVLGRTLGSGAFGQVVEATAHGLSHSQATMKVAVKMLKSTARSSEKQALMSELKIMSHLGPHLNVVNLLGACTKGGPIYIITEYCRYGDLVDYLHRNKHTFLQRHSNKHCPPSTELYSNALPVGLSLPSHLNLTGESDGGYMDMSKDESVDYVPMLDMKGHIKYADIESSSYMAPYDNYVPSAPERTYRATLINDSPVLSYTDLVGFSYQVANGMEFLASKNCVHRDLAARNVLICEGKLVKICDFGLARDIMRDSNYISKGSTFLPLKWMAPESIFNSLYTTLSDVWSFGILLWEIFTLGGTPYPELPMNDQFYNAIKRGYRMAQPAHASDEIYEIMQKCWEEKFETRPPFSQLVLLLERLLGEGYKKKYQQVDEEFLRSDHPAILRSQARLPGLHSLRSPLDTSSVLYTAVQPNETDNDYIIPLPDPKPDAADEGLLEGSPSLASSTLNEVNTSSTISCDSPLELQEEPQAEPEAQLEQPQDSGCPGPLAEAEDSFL
Background: TR-FRET usually uses a lanthanide donor and a delayed reading to cut background.
For `Cc1ncc(C(=O)NCCN2CCCC2(C)C)cc1NC(=O)c1cnn2cc(-c3ccnc(N4CCOCC4)c3)sc12` [Example 483, N-(5-((2-(2,2-dimethylpyrrolidin-1-yl)ethyl)carbamoyl)-2-methylpyridin-3-yl)-2-(2-morpholinopyridin-4-yl)pyrazolo[5,1-b]thiazole-7-carboxamide], the IC50 turned out to be 0.0177 µM.

The experiment is the same for the next values; noted with them: read-out: PDGFR Cellular IC50.
Turning to `COC1CCN(CC(=O)Nc2cnc(C)c(NC(=O)c3cnn4cc(-c5cnn(C)c5)sc34)c2)CC1` [Example 83, N-(5-(2-(4-methoxypiperidin-1-yl)acetamido)-2-methylpyridin-3-yl)-2-(1-methyl-1H-pyrazol-4-yl)pyrazolo[5,1-b]thiazole-7-carboxamide], the IC50 was determined as 0.0441 µM.

With `COCCn1cc(-c2cn3ncc(C(=O)Nc4cc(NC(=O)C5(CN6CCCC6(C)C)CC5)cnc4C)c3s2)cn1` [Example 487, N-(5-(1-((2,2-dimethylpyrrolidin-1-yl)methyl)cyclopropane-carboxamido)-2-methylpyridin-3-yl)-2-(1-(2-methoxyethyl)-1H-pyrazol-4-yl)pyrazolo[5,1-b]thiazole-7-carboxamide], the IC50 turned out to be 0.0426 µM.

`Cc1ncc(NC(=O)CN2CCOCC2(C)C)cc1NC(=O)c1cnn2cc(-c3cnn(C)c3)sc12` [Example 68, N-(5-(2-(3,3-dimethylmorpholino)acetamido)-2-methylpyridin-3-yl)-2-(1-methyl-1H-pyrazol-4-yl)pyrazolo[5,1-b]thiazole-7-carboxamide]: the IC50 came out at 0.0191 µM.

Take `Cc1ncc(NC(=O)CN2CCc3ncccc3C2)cc1NC(=O)c1cnn2cc(-c3cnn(C)c3)sc12` [Example 63, N-(5-(2-(7,8-dihydro-1,6-naphthyridin-6 (5H)-yl)acetamido)-2-methylpyridin-3-yl)-2-(1-methyl-1H-pyrazol-4-yl)pyrazolo[5,1-b]thiazole-7-carboxamide]: the IC50 turned out to be 0.223 µM.

As for `Cc1ncc(NC(=O)CCN2CC3CCC2CC3)cc1NC(=O)c1cnn2cc(-c3cnn(C)c3)sc12` [Example 43, N-(5-(3-(2-azabicyclo[2.2.2]octan-2-yl)propanamido)-2-methylpyridin-3-yl)-2-(1-methyl-1H-pyrazol-4-yl)pyrazolo[5,1-b]thiazole-7-carboxamide], the IC50 worked out at 0.0072 µM.

For `COCCn1cc(-c2cn3ncc(C(=O)Nc4cc(NC(=O)C[C@H]5CCCN5C(C)C)cnc4C)c3s2)cn1` [Example 485, (R)—N-(5-(2-(1-isopropylpyrrolidin-2-yl)acetamido)-2-methylpyridin-3-yl)-2-(1-(2-methoxyethyl)-1H-pyrazol-4-yl)pyrazolo[5,1-b]thiazole-7-carboxamide], the IC50 was 0.0344 µM.

As to `Cc1ncc(NC(=O)CN2CCOCC23CC3)cc1NC(=O)c1cnn2cc(-c3cnn(C)c3)sc12` [Example 47, N-(5-(2-(7-oxa-4-azaspiro[2.5]octan-4-yl)acetamido)-2-methylpyridin-3-yl)-2-(1-methyl-1H-pyrazol-4-yl)pyrazolo[5,1-b]thiazole-7-carboxamide], the IC50 was 0.0372 µM.

In the case of `Cc1ncc(NC(=O)CN2CCCC(F)(F)C2)cc1NC(=O)c1cnn2cc(-c3cnn(C)c3)sc12` [Example 49, N-(5-(2-(3,3-difluoropiperidin-1-yl)acetamido)-2-methylpyridin-3-yl)-2-(1-methyl-1H-pyrazol-4-yl)pyrazolo[5,1-b]thiazole-7-carboxamide], the IC50 was 0.0047 µM.

Take `Cc1ncc(NC(=O)CN2CCc3c(cnn3C)C2)cc1NC(=O)c1cnn2cc(-c3cnn(C)c3)sc12` [Example 57, 2-(1-methyl-1H-pyrazol-4-yl)-N-(2-methyl-5-(2-(1-methyl-6,7-dihydro-1H-pyrazolo[4,3-c]pyridin-5 (4H)-yl)acetamido)pyridin-3-yl)pyrazolo[5,1-b]thiazole-7-carboxamide]: the IC50 is 0.124 µM.

For the compound `Cc1ncc(NC(=O)CN2CCC3(CC2)COC3)cc1NC(=O)c1cnn2cc(-c3cnn(C)c3)sc12` [Example 46, N-(5-(2-(2-oxa-7-azaspiro[3.5]nonan-7-yl)acetamido)-2-methylpyridin-3-yl)-2-(1-methyl-1H-pyrazol-4-yl)pyrazolo[5,1-b]thiazole-7-carboxamide], the IC50 was found to be 0.0855 µM.

As to `Cc1ncc(NC(=O)OC[C@@H]2CCCN2C)cc1NC(=O)c1cnn2cc(-c3cn(C)nc3C)sc12` [Example 496, (S)-(1-methylpyrrolidin-2-yl)methyl (5-(2-(1,3-dimethyl-1H-pyrazol-4-yl)pyrazolo[5,1-b]thiazole-7-carboxamido)-6-methylpyridin-3-yl)carbamate], the IC50 came out at 0.0056 µM.

Take `COCCn1cc(-c2cn3ncc(C(=O)Nc4cc(NC(=O)C[C@H]5CCN(C(C)C)C5)cnc4C)c3s2)cn1` [Example 486, (R)—N-(5-(2-(1-isopropylpyrrolidin-3-yl)acetamido)-2-methylpyridin-3-yl)-2-(1-(2-methoxyethyl)-1H-pyrazol-4-yl)pyrazolo[5,1-b]thiazole-7-carboxamide]: the IC50 turned out to be 2 µM.

In the case of `Cc1ncc(NC(=O)CCN2CCCC2(C)C)cc1NC(=O)c1cnn2cc(-c3cnn(C)c3)sc12` [Example 42, N-(5-(3-(2,2-dimethylpyrrolidin-1-yl)propanamido)-2-methyl-pyridin-3-yl)-2-(1-methyl-1H-pyrazol-4-yl)pyrazolo[5,1-b]thiazole-7-carboxamide], the IC50 turned out to be 0.0059 µM.

In the case of `Cc1ncc(NC(=O)CN2CCc3cccnc3C2)cc1NC(=O)c1cnn2cc(-c3cnn(C)c3)sc12` [Example 60, N-(5-(2-(5,6-dihydro-1,7-naphthyridin-7 (8H)-yl)acetamido)-2-methylpyridin-3-yl)-2-(1-methyl-1H-pyrazol-4-yl)pyrazolo[5,1-b]thiazole-7-carboxamide], the IC50 worked out at 0.0504 µM.

As to `COCCn1cc(-c2cn3ncc(C(=O)Nc4cc(NC(=O)CCN5CC(C)(C)C5)cnc4C)c3s2)cn1` [Example 93, N-(5-(3-(3,3-dimethylazetidin-1-yl)propanamido)-2-methylpyridin-3-yl)-2-(1-(2-methoxyethyl)-1H-pyrazol-4-yl)pyrazolo[5,1-b]thiazole-7-carboxamide], the IC50 is 0.066 µM.

With `CC[C@H]1CN(CC(=O)Nc2cnc(C)c(NC(=O)c3cnn4cc(-c5cnn(C)c5)sc34)c2)CCO1` [Example 66, (S)—N-(5-(2-(2-ethylmorpholino)acetamido)-2-methylpyridin-3-yl)-2-(1-methyl-1H-pyrazol-4-yl)pyrazolo[5,1-b]thiazole-7-carboxamide], the IC50 turned out to be 0.0046 µM.

With `Cc1ncc(NC(=O)CN2CCCC23CC3)cc1NC(=O)c1cnn2cc(-c3cnn(CCO)c3)sc12` [Example 87, N-(5-(2-(4-azaspiro[2.4]heptan-4-yl)acetamido)-2-methylpyridin-3-yl)-2-(1-(2-hydroxyethyl)-1H-pyrazol-4-yl)pyrazolo[5,1-b]thiazole-7-carboxamide], the IC50 was 0.001 µM.

`Cc1ncc(NC(=O)CN2Cc3ccncc3C2)cc1NC(=O)c1cnn2cc(-c3cnn(C)c3)sc12` [Example 77, N-(5-(2-(1H-pyrrolo[3,4-c]pyridin-2 (3H)-yl)acetamido)-2-methylpyridin-3-yl)-2-(1-methyl-1H-pyrazol-4-yl)pyrazolo[5,1-b]thiazole-7-carboxamide]: the IC50 is 0.0789 µM.

As to `Cc1ncc(C(=O)NCCN2CCCC23CCC3)cc1NC(=O)c1cnn2cc(-c3cnn(C)c3)sc12` [Example 3, N-(5-((2-(5-azaspiro[3.4]octan-5-yl)ethyl)carbamoyl)-2-methylpyridin-3-yl)-2-(1-methyl-1H-pyrazol-4-yl)pyrazolo[5,1-b]thiazole-7-carboxamide], the IC50 came out at 0.006 µM.

For `Cc1ncc(C(=O)NCCN2CCCC23CC3)cc1NC(=O)c1cnn2cc(-c3cnn(C)c3)sc12` [Example 2, N-(5-((2-(4-azaspiro[2.4]heptan-4-yl)ethyl)carbamoyl)-2-methylpyridin-3-yl)-2-(1-methyl-1H-pyrazol-4-yl)pyrazolo[5,1-b]thiazole-7-carboxamide], the IC50 stood at 0.0302 µM.

In the case of `Cc1ncc(NC(=O)CN2CCc3scnc3C2)cc1NC(=O)c1cnn2cc(-c3cnn(C)c3)sc12` [Example 61, N-(5-(2-(6,7-dihydrothiazolo[4,5-c]pyridin-5 (4H)-yl)acetamido)-2-methylpyridin-3-yl)-2-(1-methyl-1H-pyrazol-4-yl)pyrazolo[5,1-b]thiazole-7-carboxamide], the IC50 was determined as 0.0436 µM.

`Cc1ncc(NC(=O)CN2CCc3ncsc3C2)cc1NC(=O)c1cnn2cc(-c3cnn(C)c3)sc12` [Example 58, N-(5-(2-(6,7-dihydrothiazolo[5,4-c]pyridin-5 (4H)-yl)acetamido)-2-methylpyridin-3-yl)-2-(1-methyl-1H-pyrazol-4-yl)pyrazolo[5,1-b]thiazole-7-carboxamide]: the IC50 is 0.0529 µM.

Take `Cc1ncc(NC(=O)CNC2CCC2)cc1NC(=O)c1cnn2cc(-c3cnn4c3OCCC4)sc12` [Example 494, N-(5-(2-(cyclobutylamino)acetamido)-2-methylpyridin-3-yl)-2-(6,7-dihydro-5H-pyrazolo[5,1-b][1,3]oxazin-3-yl)pyrazolo[5,1-b]thiazole-7-carboxamide]: the IC50 was 0.0096 µM.

Consider `Cc1ncc(NC(=O)CN2C3CCC2COC3)cc1NC(=O)c1cnn2cc(-c3cnn(C)c3)sc12` [Example 44, N-(5-(2-(3-oxa-8-azabicyclo[3.2.1]octan-8-yl)acetamido)-2-methylpyridin-3-yl)-2-(1-methyl-1H-pyrazol-4-yl)pyrazolo[5,1-b]thiazole-7-carboxamide], for which the IC50 is 0.0237 µM.

With `Cc1ncc(NC(=O)CN2CCC3(CCO3)CC2)cc1NC(=O)c1cnn2cc(-c3cnn(C)c3)sc12` [Example 81, N-(5-(2-(1-oxa-7-azaspiro[3.5]nonan-7-yl)acetamido)-2-methylpyridin-3-yl)-2-(1-methyl-1H-pyrazol-4-yl)pyrazolo[5,1-b]thiazole-7-carboxamide], the IC50 stood at 0.0798 µM.

Consider `COCCn1cc(-c2cn3ncc(C(=O)Nc4cc(NC(=O)CCN5C[C@H]6CC[C@@H]5C6)cnc4C)c3s2)cn1` [Example 94, N-(5-(3-((1R,4S)-2-azabicyclo[2.2.1]heptan-2-yl)propanamido)-2-methylpyridin-3-yl)-2-(1-(2-methoxyethyl)-1H-pyrazol-4-yl)pyrazolo[5,1-b]thiazole-7-carboxamide], for which the IC50 was found to be 0.143 µM.
